{"source": "patent US20090227670A1", "about": "“PHARMACEUTICAL COMPOSITIONS COMPRISING FLAVONOIDS AND MENTHOL” (priority 2002, published 2009)", "format_in_all_cases": "cell-based, human rhinovirus", "key": {"rhinovirus-T39": {"test_system": "rhinovirus-T39", "test": "antiviral activity of HuIFN-α versus rhinovirus in presence and absence of menthol (MTS method, WISH cells)", "settings": "menthol 1:800", "method": "Rhinovirus 1A, rhinovirus 15 and rhinovirus 39 were titrated according to the tetrazolium salt (MTS)-method (Berg et al., 1990) (Hansen et al., 1989)). WISH cells were seeded in a micro tray at 3000 cells per well and incubated at 37° C., 5% CO2 overnight; the following morning the medium was replaced with 10-fold dilutions of either rhinovirus 1A, rhinovirus 15 or rhinovirus 39, respectively, in fresh medium and the trays were incubated 4-5 days at 33° C.; a microscopical examination confirmed that the CytoPathogenic Effect (CPE) was fully developed (CPE equal to 100%). The minimal amount of virus (i.e.: the highest dilution of the virus in question) which produced 100% destruction was used as “challenge virus” in the subsequent experiments. To quantitate the CPE in terms of % destruction, MTS (Berg and Owen, 2003) was added to all cultures and after 3 h incubation at 37° C. (without CO2) the trays were read in a scanner as previously described (Berg et al., 1990). […]\nThe results were graphed with the concentration of interferon on the horizontal scale and the OD492 readings on the vertical scale."}, "rhinovirus T39": {"test_system": "rhinovirus T39", "test": "rhinovirus titration on WISH cell monolayers in presence or absence of menthol", "settings": "menthol dilution 1:800; virus dilution range 10^2-10^3; WISH cells (FIG. 2A)", "method": "Rhinovirus 1A, rhinovirus 15 and rhinovirus 39 were titrated according to the tetrazolium salt (MTS)-method (Berg et al., 1990) (Hansen et al., 1989)). WISH cells were seeded in a micro tray at 3000 cells per well and incubated at 37° C., 5% CO2 overnight; the following morning the medium was replaced with 10-fold dilutions of either rhinovirus 1A, rhinovirus 15 or rhinovirus 39, respectively, in fresh medium and the trays were incubated 4-5 days at 33° C.; a microscopical examination confirmed that the CytoPathogenic Effect (CPE) was fully developed (CPE equal to 100%). The minimal amount of virus (i.e.: the highest dilution of the virus in question) which produced 100% destruction was used as “challenge virus” in the subsequent experiments. To quantitate the CPE in terms of % destruction, MTS (Berg and Owen, 2003) was added to all cultures and after 3 h incubation at 37° C. (without CO2) the trays were read in a scanner as previously described (Berg et al., 1990). Control cell cultures, that were not infected with virus, were included in the experiment; the latter gave the highest OD as these cells were not damaged; depending on the concentration of virus added to the different wells, the OD492 varied, accordingly: 100% CPE yielded a low OD (<0.200); 0% CPE corresponding to no infection at all (controls cell) gave a high OD (>1.200). […]"}, "RHV 1A, 17, and 39A": {"test_system": "RHV 1A, 17, and 39A", "test": "rhinovirus titration in presence of menthol, all three rhinoviruses employed", "method": "WISH cells were seeded in a micro tray at 3000 cells per well and incubated at 37° C., 5% CO2 overnight; the following morning the medium was replaced with 10-fold dilutions of either rhinovirus 1A, […], respectively, in fresh medium and the trays were incubated 4-5 days at 33° C.; a microscopical examination confirmed that the CytoPathogenic Effect (CPE) was fully developed (CPE equal to 100%). The minimal amount of virus (i.e.: the highest dilution of the virus in question) which produced 100% destruction was used as “challenge virus” in the subsequent experiments. To quantitate the CPE in terms of % destruction, MTS (Berg and Owen, 2003) was added to all cultures and after 3 h incubation at 37° C. (without CO2) the trays were read in a scanner as previously described (Berg et al., 1990). Control cell cultures, that were not infected with virus, were included in the experiment; the latter gave the highest OD as these cells were not damaged; depending on the concentration of virus added to the different wells, the OD492 varied, accordingly: 100% CPE yielded a low OD (<0.200); 0% CPE corresponding to no infection at all (controls cell) gave a high OD (>1.200). […]"}}, "data": [{"smiles": "CC(C)[C@@H]1CC[C@@H](C)C[C@H]1O", "note": "[Menthol, levo-(−)-Menthol]", "values": [{"measurement": "potentiation of interferon antiviral activity (interferon curve+menthol versus interferon curve)", "setting": "rhinovirus-T39; interferon range 0 to 8 units/ml, HRV T39, similar at 10^-2.5", "value": "specific potentiation"}, {"measurement": "protection compared to uninfected control cells", "setting": "rhinovirus-T39; HRV T39 at 10^-2, IFN=0 units/ml, WISH cells, OD492 (FIG. 1A)", "value": "10-15%"}, {"measurement": "increase in protection compared to virus controls receiving no menthol", "setting": "rhinovirus T39", "value": "~50", "unit": "%"}, {"measurement": "protection against rhinovirus", "setting": "RHV 1A, 17, and 39A", "value": "protection was seen"}]}]}
